Assay results as given in patent publication US20110190365A1, “Insecticidal 4-phenyl-1H-pyrazoles” (Bayer Crop Science AG, priority 2008, published 2011).

Experiment: log P by HPLC on a reversed-phase column (C18), EEC Directive 79/831 Annex V.A8
Type: physicochemical
Protocol: The stated log P values were determined in accordance with EEC Directive 79/831 Annex V.A8 by HPLC (High Performance Liquid Chromatography) using a reversed-phase column (C18).

[1] = HCOOH, Table 4, compounds of formula I-A-Q4
[2] = HPLC, reversed-phase C18, mobile phase with formic acid
[3] = HCOOH, compounds of the formula (IX), Table 11

| SMILES | log P (HCOOH) (HCOOH) | also measured |
| --- | --- | --- |
| Cc1cc(-n2nc(C(F)(F)F)c(-c3cc(F)c(F)c(F)c3)c2N)ccc1C(=O)NCC(F)(F)C(F)F [I-A-Q2-316] | I-A-Q2-316: log P (HCOOH): 3.65 |  |
| CC(NC(=O)c1ccc(-n2nc(C(F)(F)F)c(-c3cccc(F)c3)c2N)cc1)c1ccccn1 (stereo not shown) [I-A-Q2-186] | I-A-Q2-186: log P (HCOOH): 2.42 |  |
| Cc1cc(-n2nc(C(F)(F)F)c(-c3cc(Cl)cc(Cl)c3)c2N)ccc1C(=O)NCC(=O)N1CCOCC1 [I-A-Q2-031] | I-A-Q2-031: log P (HCOOH): 3.33 |  |
| Cc1cc(-n2nc(C(F)(F)F)c(-c3cc(Cl)cc(Cl)c3)c2N)ccc1C(=O)N(C)C(C)c1cccnc1 (stereo not shown) [I-A-Q2-208] | I-A-Q2-208: log P (HCOOH): 3.19 |  |
| Cc1nn(-c2ccc(Cl)cn2)c(N)c1-c1ccc(F)cc1 [I-A-Q4-038] |  | log P (HCOOH) [1]: I-A-Q4-038: log P (HCOOH): 3.84 |
| CC(C)NC(=O)c1ccc(-n2nc(C(F)(F)F)c(-c3ccc(Cl)c(Cl)c3)c2N)cc1 [I-A-Q2-154] | I-A-Q2-154: log P (HCOOH): 3.75 |  |
| N#Cc1cc(-n2nc(C(F)(F)F)c(-c3ccc(Cl)c(Cl)c3)c2N)ccc1-n1cncn1 [I-A-Q1-031] |  | log P (HCOOH) [2]: I-A-Q1-031: log P (HCOOH): 3.60 |
| CC(=O)Nc1[nH]nc(C(F)(F)F)c1-c1cc(Cl)cc(Cl)c1 [IX-203] |  | log P (HCOOH) [3]: IX-203: log P (HCOOH): 2.98 |
| COC(=O)c1ccc(-n2nc(C(F)(F)F)c(Br)c2N)cc1C [XI-A-082] | XI-A-082: log P (HCOOH): 3.52 |  |
| Nc1c(-c2ccc(Cl)cc2)c(C(F)(F)F)nn1-c1ccc(C(=O)O)cc1 [I-A-Q4-088] |  | log P (HCOOH) [1]: I-A-Q4-088: log P (HCOOH): 3.28 |
| Cc1cc(-n2nc(C(F)(F)F)c(-c3cc(Cl)cc(Cl)c3)c2N)ccc1C(=O)NCc1ccccc1F [I-A-Q2-112] | I-A-Q2-112: log P (HCOOH): 4.34 |  |
| N#Cc1cc(-n2nc(C(F)(F)F)c(-c3cc(Cl)cc(Cl)c3)c2N)ccc1-n1cc(Cl)cn1 [I-A-Q1-084] |  | log P (HCOOH) [2]: I-A-Q1-084: log P (HCOOH): 4.70 |
| CC(NC(=O)c1ccc(-n2nc(C(F)(F)F)c(-c3cc(Cl)cc(Cl)c3)c2Br)cc1)C(F)(F)F (stereo not shown) [I-A-Q2-096] | I-A-Q2-096: log P (HCOOH): 5.35 |  |
| Cc1cc(-n2nc(-c3ccccc3)c(-c3ccc(Cl)cc3)c2N)ccc1C(=O)NCc1ccccn1 [I-A-Q2-377] | I-A-Q2-377: log P (HCOOH): 2.80 |  |
| COc1cc(OC)nc(CNC(=O)c2ccc(-n3nc(C(F)(F)F)c(-c4cc(Cl)cc(Cl)c4)c3N)cc2C)n1 [I-A-Q2-255] | I-A-Q2-255: log P (HCOOH): 4.40 |  |
| Nc1c(-c2ccc(Br)cc2)c(C(F)(F)F)nn1-c1ccc(C(=O)NCC(F)(F)F)cc1 [I-A-Q2-189] | I-A-Q2-189: log P (HCOOH): 3.53 |  |
| Cc1nccc(CNC(=O)c2ccc(-n3nc(C(F)(F)F)c(-c4cc(Cl)cc(Cl)c4)c3N)cc2C)n1 [I-A-Q2-258] | I-A-Q2-258: log P (HCOOH): 3.47 |  |
| Cc1cc(-n2nc(C(F)(F)F)cc2N)ccc1C(=O)O [XI-A-084] | XI-A-084: log P (HCOOH): 3.53 |  |
| CCNC(=O)c1ccc(-n2nc(C(F)(F)F)c(-c3cc(Cl)cc(Cl)c3)c2N)cc1C [I-A-Q2-270] | I-A-Q2-270: log P (HCOOH): 3.84 |  |
| N#Cc1cc(-n2nc(C(F)(F)C(F)(F)F)c(-c3cc(C(F)(F)F)cc(C(F)(F)F)c3)c2N)ccc1-n1cncn1 [I-A-Q1-050] |  | log P (HCOOH) [2]: I-A-Q1-050: log P (HCOOH): 4.34 |
| Cc1cc(-n2nc(C(F)(F)F)c(-c3ccc(C#N)cc3)c2N)ccc1C(=O)NCC(F)(F)C(F)F [I-A-Q2-306] | I-A-Q2-306: log P (HCOOH): 3.24 |  |

| SMILES | log P (HCOOH) (HCOOH) | also measured |
| --- | --- | --- |
| Cc1nn(-c2ccc(-n3cncn3)c(C#N)c2)c(N)c1-c1ccc(Cl)cc1Cl [I-A-Q1-056] |  | log P (HCOOH) [2]: I-A-Q1-056: log P (HCOOH): 2.80 |
| CC(NC(=O)c1ccc(-n2nc(C(F)(F)F)c(-c3cc(Cl)cc(Cl)c3)c2N)nc1)c1ccccn1 (stereo not shown) [I-A-Q2-102] | I-A-Q2-102: log P (HCOOH): 4.06 |  |
| Cc1cc(-n2nc(C(F)(F)F)c(-c3cc(Cl)cc(Cl)c3)c2N)ccc1C(=O)NCC(F)(F)C(F)(F)F [I-A-Q2-269] | I-A-Q2-269: log P (HCOOH): 4.57 |  |
| Cc1nn(-c2ccc(Cl)cn2)c(N)c1-c1ccccc1Cl [I-A-Q4-032] |  | log P (HCOOH) [1]: I-A-Q4-032: log P (HCOOH): 3.89 |
| CCc1nn(-c2ccc(-n3cncn3)c(C#N)c2)c(N)c1-c1ccc(Cl)cc1 [I-A-Q1-062] |  | log P (HCOOH) [2]: I-A-Q1-062: log P (HCOOH): 3.09 |
| FC(F)(F)c1nn(-c2ccc(I)cc2)c(I)c1-c1cc(Cl)cc(Cl)c1 [I-A-Q4-018] |  | log P (HCOOH) [1]: I-A-Q4-018: log P (HCOOH): 6.50 |
| Cc1cc(-n2nc(C(F)F)c(-c3ccc(Cl)cc3)c2N)ccc1C(=O)NCC(F)(F)C(F)F [I-A-Q2-320] | I-A-Q2-320: log P (HCOOH): 3.23 |  |
| Cc1cc(-n2nc(C)c(-c3cccc(Cl)c3)c2N)ccc1C(=O)NCC(F)(F)C(F)F [I-A-Q2-331] | I-A-Q2-331: log P (HCOOH): 2.85 |  |
| CCc1nn(-c2ccc(C(=O)NCc3ccccn3)c(C)c2)c(N)c1-c1ccc(Cl)cc1 [I-A-Q2-379] | I-A-Q2-379: log P (HCOOH): 2.20 |  |
| CC(NC(=O)c1ccc(-n2nc(-c3ccccc3)c(-c3ccc(Cl)cc3)c2N)cc1)C(F)(F)F (stereo not shown) [I-A-Q2-075] | I-A-Q2-075: log P (HCOOH): 3.94 |  |
| Cc1cc(-n2nc(C(F)(F)F)c(Br)c2N)ccc1C(=O)NCC(F)(F)C(F)F [XI-A-092] | XI-A-092: log P (HCOOH): 3.03 |  |
| CCC(C)NC(=O)c1ccc(-n2nc(C(F)(F)F)c(-c3cc(Cl)cc(Cl)c3)c2N)cc1 (stereo not shown) [I-A-Q2-145] | I-A-Q2-145: log P (HCOOH): 4.34 |  |
| Nc1c(-c2cccc(Cl)c2)c(C(F)(F)F)nn1-c1ccc(C(=O)O)cc1 [I-A-Q4-096] |  | log P (HCOOH) [1]: I-A-Q4-096: log P (HCOOH): 3.20 |
| CSCC(C)NC(=O)c1ccc(-n2nc(C(F)(F)F)c(-c3cc(Cl)cc(Cl)c3)c2N)cc1C (stereo not shown) [I-A-Q2-279] | I-A-Q2-279: log P (HCOOH): 4.43 |  |
| Cc1cc(-n2nc(C(F)(F)F)c(-c3cc(Cl)cc(Cl)c3)c2N)ccc1C(=O)NC(c1ccc(N(C)C)cc1)C(F)(F)F (stereo not shown) [I-A-Q2-246] | I-A-Q2-246: log P (HCOOH): 5.02 |  |
| CCCCCNC(=O)c1ccc(-n2nc(C(F)(F)F)c(-c3cc(Cl)cc(Cl)c3)c2N)cc1C [I-A-Q2-237] | I-A-Q2-237: log P (HCOOH): 4.76 |  |
| Nc1c(-c2ccc(Cl)c(Cl)c2)c(C(F)(F)F)nn1-c1ccc(C(=O)O)cc1 [I-A-Q4-089] |  | log P (HCOOH) [1]: I-A-Q4-089: log P (HCOOH): 3.69 |
| CC(NC(=O)c1ccc(-n2nc(C(F)(F)F)c(-c3cc(Cl)cc(Cl)c3)c2N)cc1)c1ccccc1 (stereo not shown) [I-A-Q2-150] | I-A-Q2-150: log P (HCOOH): 4.65 |  |
| Nc1[nH]nc(C(F)(F)F)c1-c1ccc(Cl)c(Cl)c1 [IX-38] |  | log P (HCOOH) [3]: IX-38: log P (HCOOH): 2.80 |
| Cc1cc(-n2nc(C(F)(F)F)c(-c3cc(Cl)cc(Cl)c3)c2N)ccc1C(=O)NC(c1ccc(Oc2ccccc2)cc1)C(F)(F)F (stereo not shown) [I-A-Q2-045] | I-A-Q2-045: log P (HCOOH): 5.85 |  |
| Nc1c(-c2cc(Cl)cc(Cl)c2)c(C(F)(F)F)nn1-c1ccc(C(=O)NCCC(F)(F)F)cc1 [I-A-Q2-139] | I-A-Q2-139: log P (HCOOH): 4.25 |  |

| SMILES | log P (HCOOH) (HCOOH) | also measured |
| --- | --- | --- |
| Nc1c(-c2cccc(F)c2)c(C(F)(F)F)nn1-c1ccc(C(=O)NCC(F)(F)F)cc1 [I-A-Q2-183] | I-A-Q2-183: log P (HCOOH): 3.11 |  |
| Cc1cc(-n2nc(C(F)(F)F)c(-c3cc(Cl)cc(Cl)c3)c2N)ccc1C(=O)NC(=C(Cl)C#N)C(F)(F)F [I-A-Q2-047] | I-A-Q2-047: log P (HCOOH): 4.94 |  |
| Nc1c(-c2cc(Cl)cc(Cl)c2)c(C(F)(F)F)nn1-c1ccc(C(=O)NCc2ccccn2)cn1 [I-A-Q2-105] | I-A-Q2-105: log P (HCOOH): 3.61 |  |
| Cc1cc(-n2nc(C(F)(F)F)c(I)c2N)ccc1C(=O)NCC(F)(F)C(F)F [XI-A-094] | XI-A-094: log P (HCOOH): 3.08 |  |
| N#Cc1cc(-n2nc(C(F)(F)F)c(-c3cc(Cl)cc(Cl)c3)c2N)ccc1-n1cc(F)cn1 [I-A-Q1-092] |  | log P (HCOOH) [2]: I-A-Q1-092: log P (HCOOH): 4.40 |
| Cc1cc(-n2nc(C(F)(F)F)c(-c3cc(F)cc(F)c3)c2N)ccc1C(=O)NCC(F)(F)C(F)F [I-A-Q2-315] | I-A-Q2-315: log P (HCOOH): 3.37 |  |
| Nc1c(-c2ccc(Cl)cc2)c(C(F)(F)F)nn1-c1ccc(Cl)cn1 [I-A-Q4-041] |  | log P (HCOOH) [1]: I-A-Q4-041: log P (HCOOH): 4.95 |
| Cc1cc(-n2nc(C(F)(F)F)c(-c3cc(Cl)cc(Cl)c3)c2N)ccc1C(=O)NCc1cc(C(F)(F)F)c(Cl)cn1 [I-A-Q2-207] | I-A-Q2-207: log P (HCOOH): 4.83 |  |
| Nc1[nH]nc(C(F)(F)F)c1-c1ccc(F)c(F)c1 [IX-201] |  | log P (HCOOH) [3]: IX-201: log P (HCOOH): 2.33 |
| Cc1cc(-n2nc(C(F)(F)F)c(-c3ccc(Cl)c(Cl)c3)c2N)ccc1C(=O)NCc1ccccn1 [I-A-Q2-347] | I-A-Q2-347: log P (HCOOH): 3.11 |  |
| Cc1cc(-n2nc(C(F)(F)F)c(-c3cc(C(F)(F)F)cc(C(F)(F)F)c3)c2N)ccc1C(=O)NCc1ccccn1 [I-A-Q2-360] | I-A-Q2-360: log P (HCOOH): 3.47 |  |
| Cc1cc(-n2nc(C(F)(F)F)c(-c3cccc(F)c3)c2N)ccc1C(=O)NCC(F)(F)C(F)F [I-A-Q2-311] | I-A-Q2-311: log P (HCOOH): 3.27 |  |
| Nc1c(-c2cc(Cl)cc(Cl)c2)c(C(F)(F)F)nn1-c1ccc(-n2cncn2)c(-n2cncn2)c1 [I-A-Q1-075] |  | log P (HCOOH) [2]: I-A-Q1-075: log P (HCOOH): 3.28 |
| Cc1cc(-n2nc(C(F)(F)Oc3cccc(Cl)c3)c(-c3cc(Cl)cc(C(F)(F)F)c3)c2N)ccc1C(=O)NCC(F)(F)C(F)F [I-A-Q2-297] | I-A-Q2-297: log P (HCOOH): 4.95 |  |
| Cc1ccccc1-c1c(C(F)(F)F)nn(-c2ccc(C(=O)O)cc2)c1N [I-A-Q4-101] |  | log P (HCOOH) [1]: I-A-Q4-101: log P (HCOOH): 2.94 |
| Cc1cc(-n2nc(C(F)(F)F)c(-c3cc(Cl)cc(Cl)c3)c2N)ccc1C(=O)NCCOC(C(F)(F)F)C(F)(F)F [I-A-Q2-048] | I-A-Q2-048: log P (HCOOH): 4.70 |  |
| Cc1cccc(CNC(=O)c2ccc(-n3nc(C(F)(F)F)c(-c4cc(Cl)cc(Cl)c4)c3N)cc2C)n1 [I-A-Q2-042] | I-A-Q2-042: log P (HCOOH): 2.93 |  |
| Nc1c(-c2cc(Cl)cc(Cl)c2)c(C(F)(F)F)nn1-c1ccc(C(=O)NCc2ccccn2)cc1 [I-A-Q2-134] | I-A-Q2-134: log P (HCOOH): 3.11 |  |
| Cc1cc(-n2nc(C(F)(F)F)c(-c3cc(Cl)cc(Cl)c3)c2N)ccc1C(=O)NCc1cc(F)cc(F)c1 [I-A-Q2-040] | I-A-Q2-040: log P (HCOOH): 4.57 |  |
